Test results reported in patent publication US20030236212A1, “Functionalized long chain derivatives as acyl coenzyme-A mimics, compositions thereof, and methods of cholesterol management and related uses” (priority 2002, published 2003).
Where two headings read alike, the source gives them in different places.

Test system: obese female Zucker rats
Assay: Oral daily treatment of obese female Zucker rats for 14 days (body weight, serum lipids, glucose, insulin)
Format: in vivo, rat
Parameters: HDL-C / Glucose / Insulin / NEFA / BHA / TG / TC / Non HDL-C: unit not given here
Conditions: for change in vivo at 30 mg/kg/day / change in vivo at 30 mg/kg: 30 mg/kg/day; for change in vivo at 100 mg/kg/day / change in vivo at 100 mg/kg: 100 mg/kg/day
Description: The dosing vehicle was administered to control animals in parallel experiments.
Body weight was determined daily prior to dosing. Animals were allowed free access to rodent chow and water throughout the study. Blood glucose was determined after a 6-hour fast in the afternoon without anesthesia from a tail vein. Serum was also prepared from a blood sample subsequently obtained from the orbital venous plexus (with O2/CO2 anesthesia) prior to and after one week treatment and used lipid and insulin determinations. At two weeks, blood glucose was again determined after a 6-hour fast without anesthesia from a tail vein. Soon thereafter, animals were sacrificed by CO2 inhalation in the afternoon and cardiac blood serum was collected and assessed for various lipids and insulin.

[1] = obese female Zucker rats, oral gavage daily 14 days, 100 mg/kg
[2] = obese female Zucker rats, oral, 14 days, 5 mg/kg/day (Table 1)
[3] = Rattus norvegicus, 336 h, obese female Zucker rats, oral daily, fourteen days, read-out: % wt. gain
[4] = Rattus norvegicus, 336 h, obese female Zucker rats, oral daily, fourteen days, read-out: BHA, Percent Change from Pre-treatment
[5] = Rattus norvegicus, 336 h, obese female Zucker rats, oral daily, fourteen days, read-out: Glucose, Percent Change from Pre-treatment
[6] = Rattus norvegicus, 336 h, obese female Zucker rats, oral daily, fourteen days, read-out: HDL-C, Percent Change from Pre-treatment
[7] = Rattus norvegicus, 336 h, obese female Zucker rats, oral daily, fourteen days, read-out: Insulin, Percent Change from Pre-treatment
[8] = Rattus norvegicus, 336 h, obese female Zucker rats, oral daily, fourteen days, read-out: NEFA, Percent Change from Pre-treatment
[9] = Rattus norvegicus, 336 h, obese female Zucker rats, oral daily, fourteen days, read-out: Non HDL-C, Percent Change from Pre-treatment
[10] = Rattus norvegicus, 336 h, obese female Zucker rats, oral daily, fourteen days, read-out: TC, Percent Change from Pre-treatment
[11] = Rattus norvegicus, 336 h, obese female Zucker rats, oral daily, fourteen days, read-out: TG, Percent Change from Pre-treatment

Compound | change in vivo at 30 mg/kg/day [3] [%] | change in vivo at 30 mg/kg [4] [%] | change in vivo at 30 mg/kg [5] [%] | change in vivo at 30 mg/kg [6] [%] | change in vivo at 30 mg/kg [7] [%] | change in vivo at 30 mg/kg [8] [%] | change in vivo at 30 mg/kg [9] [%] | change in vivo at 30 mg/kg [10] [%] | change in vivo at 30 mg/kg [11] [%] | change in vivo at 100 mg/kg/day [3] [%] | change in vivo at 100 mg/kg [4] [%] | change in vivo at 100 mg/kg [5] [%] | change in vivo at 100 mg/kg [6] [%] | change in vivo at 100 mg/kg [7] [%] | change in vivo at 100 mg/kg [8] [%] | change in vivo at 100 mg/kg [9] [%] | change in vivo at 100 mg/kg [10] [%] | further results
CN(CCOc1ccc(CC2SC(=O)NC2=O)cc1)c1ccccn1 (centres unmarked) [Compound 2, 5-{4-[2-(Methyl-pyridin-2-yl-amino)-ethoxy]-benzyl}-thiazolidine-2,4-dione, reference compound] | – | – | – | – | – | – | – | – | – | – | – | – | – | – | – | – | – | blood glucose levels (fasted obese female Zucker rats, oral gavage daily 14 days, 100 mg/kg): reduction; serum insulin relative to pretreatment (fasted obese female Zucker rats, two weeks of treatment, 100 mg/kg): reduced; liver to body weight [1]: slightly reduced; weight gain, percent of initial weight after two weeks [1]: greater than 15%; BHA [2]: 15.6 ± 0.6; Glucose [2]: −11.1 ± 4.5; HDL-C [2]: −4.6 ± 8.8; Insulin [2]: −53.3 ± 5.2; NEFA [2]: 0.034 ± 0.001; Non HDL-C [2]: −54.1 ± 5.6; TC [2]: −50.2 ± 1.8; TG [2]: 53 ± 14
CC(C)(CCCCOCCCCC(C)(C)COP(=O)(O)O)COP(=O)(O)O.N.N.N.N [Compound A, Phosphoric acid mono-16-(5,5-dimethyl-6-phosphonooxyhexyloxy)-2,2-dimethylhexyl] ester, tetraammonium salt] | 3 | 141 | 1 | 228 | -16 | -32 | 71 | 164 | -31 | 4 | 257 | 6 | 559 | 0 | -53 | 11 | 287 | change in vivo at 10 mg/kg/day (Rattus norvegicus, 336 h, obese female Zucker rats, oral daily, fourteen days, 10 mg/kg/day, read-out: % wt. gain): 9%; change in vivo at 10 mg/kg (Rattus norvegicus, 336 h, obese female Zucker rats, oral daily, fourteen days, 10 mg/kg/day, read-out: BHA, Percent Change from Pre-treatment): 102%; change in vivo at 10 mg/kg (Rattus norvegicus, 336 h, obese female Zucker rats, oral daily, fourteen days, 10 mg/kg/day, read-out: Glucose, Percent Change from Pre-treatment): -9%; change in vivo at 10 mg/kg (Rattus norvegicus, 336 h, obese female Zucker rats, oral daily, fourteen days, 10 mg/kg/day, read-out: HDL-C, Percent Change from Pre-treatment): 179%; change in vivo at 10 mg/kg (Rattus norvegicus, 336 h, obese female Zucker rats, oral daily, fourteen days, 10 mg/kg/day, read-out: Insulin, Percent Change from Pre-treatment): -7%; change in vivo at 10 mg/kg (Rattus norvegicus, 336 h, obese female Zucker rats, oral daily, fourteen days, 10 mg/kg/day, read-out: NEFA, Percent Change from Pre-treatment): 14%; change in vivo at 10 mg/kg (Rattus norvegicus, 336 h, obese female Zucker rats, oral daily, fourteen days, 10 mg/kg/day, read-out: Non HDL-C, Percent Change from Pre-treatment): 67%; change in vivo at 10 mg/kg (Rattus norvegicus, 336 h, obese female Zucker rats, oral daily, fourteen days, 10 mg/kg/day, read-out: TC, Percent Change from Pre-treatment): 115%; change in vivo at 10 mg/kg (Rattus norvegicus, 336 h, obese female Zucker rats, oral daily, fourteen days, 10 mg/kg/day, read-out: TG, Percent Change from Pre-treatment): 11%
CC(C)(CCCCCCOCCCCCCC(C)(C)COP(=O)(O)O)COP(=O)(O)O [Compound C] | 13 | 123 | 9 | -19 | 11 | -33 | 52 | 6 | 22 | – | – | – | – | – | – | – | – | –
CC(C)(CO)CCCCNCCCCC(C)(C)CO [Compound H, 6-(6-Hydroxy-5,5-dimethylhexylamino)-2,2-dimethylhexan-1-ol] | – | – | – | – | – | – | – | – | – | – | – | – | – | – | – | – | – | change in vivo at 53 mg/kg/day (Rattus norvegicus, 336 h, obese female Zucker rats, oral daily, fourteen days, 53 mg/kg/day, read-out: % wt. gain): 16%; change in vivo at 53 mg/kg (Rattus norvegicus, 336 h, obese female Zucker rats, oral daily, fourteen days, 53 mg/kg/day, read-out: BHA, Percent Change from Pre-treatment): 48%; change in vivo at 53 mg/kg (Rattus norvegicus, 336 h, obese female Zucker rats, oral daily, fourteen days, 53 mg/kg/day, read-out: Glucose, Percent Change from Pre-treatment): -23%; change in vivo at 53 mg/kg (Rattus norvegicus, 336 h, obese female Zucker rats, oral daily, fourteen days, 53 mg/kg/day, read-out: HDL-C, Percent Change from Pre-treatment): 16%; change in vivo at 53 mg/kg (Rattus norvegicus, 336 h, obese female Zucker rats, oral daily, fourteen days, 53 mg/kg/day, read-out: Insulin, Percent Change from Pre-treatment): -49%; change in vivo at 53 mg/kg (Rattus norvegicus, 336 h, obese female Zucker rats, oral daily, fourteen days, 53 mg/kg/day, read-out: NEFA, Percent Change from Pre-treatment): -55%; change in vivo at 53 mg/kg (Rattus norvegicus, 336 h, obese female Zucker rats, oral daily, fourteen days, 53 mg/kg/day, read-out: Non HDL-C, Percent Change from Pre-treatment): -10%; change in vivo at 53 mg/kg (Rattus norvegicus, 336 h, obese female Zucker rats, oral daily, fourteen days, 53 mg/kg/day, read-out: TC, Percent Change from Pre-treatment): 5%; change in vivo at 53 mg/kg (Rattus norvegicus, 336 h, obese female Zucker rats, oral daily, fourteen days, 53 mg/kg/day, read-out: TG, Percent Change from Pre-treatment): -32%
CC(C)(CO)CCCCNC(=O)CCCCC(C)(C)CO [Compound J, 7-Hydroxy-6,6-dimethylheptanoic acid (6-hydroxy-5,5-dimethylhexyl)-amide] | 11 | 21 | 18 | 20 | -41 | -38 | -7 | 9 | -10 | – | – | – | – | – | – | – | – | –
CC(C)(CO)CCCCOC(=O)CCCCC(C)(C)CO [Compound K, 7-Hydroxy-6,6-dimethylheptanoic acid 6-hydroxy-5,5-dimethylhexyl ester] | – | – | – | – | – | – | – | – | – | 11 | 103 | -21 | 23 | 0 | 43 | -5 | 12 | change in vivo at 100 mg/kg [11]: 7%
CC(C)(CO)CCCCOP(=O)(O)OCCCCC(C)(C)CO [Compound L, phosphoric acid bis(5,5-dimethyl-6-hydroxy-hexyl)ester] | – | – | – | – | – | – | – | – | – | – | – | – | – | – | – | – | – | change in vivo at 80 mg/kg/day (Rattus norvegicus, 336 h, obese female Zucker rats, oral daily, fourteen days, 80 mg/kg/day, read-out: % wt. gain): 0%; change in vivo at 80 mg/kg (Rattus norvegicus, 336 h, obese female Zucker rats, oral daily, fourteen days, 80 mg/kg/day, read-out: BHA, Percent Change from Pre-treatment): 575%; change in vivo at 80 mg/kg (Rattus norvegicus, 336 h, obese female Zucker rats, oral daily, fourteen days, 80 mg/kg/day, read-out: Glucose, Percent Change from Pre-treatment): 9%; change in vivo at 80 mg/kg (Rattus norvegicus, 336 h, obese female Zucker rats, oral daily, fourteen days, 80 mg/kg/day, read-out: HDL-C, Percent Change from Pre-treatment): 8%; change in vivo at 80 mg/kg (Rattus norvegicus, 336 h, obese female Zucker rats, oral daily, fourteen days, 80 mg/kg/day, read-out: Insulin, Percent Change from Pre-treatment): 21%; change in vivo at 80 mg/kg (Rattus norvegicus, 336 h, obese female Zucker rats, oral daily, fourteen days, 80 mg/kg/day, read-out: NEFA, Percent Change from Pre-treatment): 62%; change in vivo at 80 mg/kg (Rattus norvegicus, 336 h, obese female Zucker rats, oral daily, fourteen days, 80 mg/kg/day, read-out: Non HDL-C, Percent Change from Pre-treatment): -17%; change in vivo at 80 mg/kg (Rattus norvegicus, 336 h, obese female Zucker rats, oral daily, fourteen days, 80 mg/kg/day, read-out: TC, Percent Change from Pre-treatment): -4%; change in vivo at 80 mg/kg (Rattus norvegicus, 336 h, obese female Zucker rats, oral daily, fourteen days, 80 mg/kg/day, read-out: TG, Percent Change from Pre-treatment): -13%
CC(C)(CO)CCCCNC(=O)OCCCCC(C)(C)CO [Compound M, (6-Hydroxy-5,5-dimethylhexyl)-carbamic acid 6-hydroxy-5,5-dimethylhexyl ester] | – | – | – | – | – | – | – | – | – | 20 | 145 | 2 | 65 | 26 | -53 | 84 | 70 | change in vivo at 100 mg/kg [11]: -4%
